Test system: 485368-065-R4-J2-PDC spheroids with HUVEC/MSC, viability
Test: Anticancer human tumor 485368-065-R4-J2-PDC patient-derived pancreatic carcinoma cell line growth inhibition [CLK]
Settings: for IC50: curve of first compound; for viability, T/C: stronger effect = lower value
Outline: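 Multi-cell-type spheroids combined patient-derived tumor cells with HUVEC endothelial cells and human mesenchymal stem cells. Paired agents were dosed in half-log steps down from about clinical Cmax, or from 10 microM where Cmax was unknown.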

[1] = second compound 0.0316 µM, first compound 0.0316 µM
[2] = second compound 0.0316 µM, first compound 0.1 µM
[3] = second compound 0.0316 µM, first compound 0.316 µM
[4] = second compound 0.0316 µM, first compound 1 µM
[5] = second compound 0.0316 µM, first compound 3.16 µM
[6] = second compound 0.0316 µM, first compound 10 µM
[7] = second compound 0.1 µM, first compound 0.0316 µM
[8] = second compound 0.1 µM, first compound 0.1 µM
[9] = second compound 0.1 µM, first compound 0.316 µM
[10] = second compound 0.1 µM, first compound 1 µM
[11] = second compound 0.1 µM, first compound 3.16 µM
[12] = second compound 0.1 µM, first compound 10 µM
[13] = second compound 0.316 µM, first compound 0.0316 µM
[14] = second compound 0.316 µM, first compound 0.1 µM
[15] = second compound 0.316 µM, first compound 0.316 µM
[16] = second compound 0.316 µM, first compound 1 µM
[17] = second compound 0.316 µM, first compound 3.16 µM
[18] = second compound 0.316 µM, first compound 10 µM
[19] = second compound 1 µM, first compound 0.0316 µM
[20] = second compound 1 µM, first compound 0.1 µM
[21] = second compound 1 µM, first compound 0.316 µM
[22] = second compound 1 µM, first compound 1 µM
[23] = second compound 1 µM, first compound 3.16 µM
[24] = second compound 1 µM, first compound 10 µM
[25] = second compound 3.16 µM, first compound 0.0316 µM
[26] = second compound 3.16 µM, first compound 0.1 µM
[27] = second compound 3.16 µM, first compound 0.316 µM
[28] = second compound 3.16 µM, first compound 1 µM
[29] = second compound 3.16 µM, first compound 3.16 µM
[30] = second compound 3.16 µM, first compound 10 µM
[31] = second compound 10 µM, first compound 0.0316 µM
[32] = second compound 10 µM, first compound 0.1 µM
[33] = second compound 10 µM, first compound 0.316 µM
[34] = second compound 10 µM, first compound 1 µM
[35] = second compound 10 µM, first compound 3.16 µM
[36] = second compound 10 µM, first compound 10 µM
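Note: spheroids exposed to compounds for seven days.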
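Throughout, for viability, T/C: 100% = DMSO vehicle control wells.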

Q: Which results are given for `CC(=O)O[C@H]1C(=O)[C@@]2(C)[C@H]([C@H](OC(=O)c3ccccc3)[C@]3(O)C[C@H](OC(=O)[C@H](O)[C@@H](NC(=O)c4ccccc4)c4ccccc4)C(C)=C1C3(C)C)[C@]1(OC(C)=O)CO[C@@H]1C[C@@H]2O` + CN1CCN(c2cc(C(=O)Nc3cc4cc(-c5cnn(C)c5)ccc4cn3)ccn2)CC1?
A: IC50 (second compound 0.0316 µM): < 0.0316 µM; IC50 (second compound 0.1 µM): < 0.0316 µM; IC50 (second compound 0.316 µM): < 0.0316 µM; IC50 (second compound 1 µM): < 0.0316 µM; IC50 (second compound 3.16 µM): < 0.0316 µM; IC50 (second compound 10 µM): < 0.0316 µM; viability, T/C [1]: 49.1%; viability, T/C [2]: 41.3%; viability, T/C [3]: 38.5%; viability, T/C [4]: 46.2%; viability, T/C [5]: 39.5%; viability, T/C [6]: 55.3%; viability, T/C [7]: 37.3%; viability, T/C [8]: 39.4%; viability, T/C [9]: 30.8%; viability, T/C [10]: 36%; viability, T/C [11]: 36.8%; viability, T/C [12]: 45.2%; viability, T/C [13]: 30.7%; viability, T/C [14]: 28.5%; viability, T/C [15]: 28.2%; viability, T/C [16]: 25.4%; viability, T/C [17]: 28.7%; viability, T/C [18]: 35.5%; viability, T/C [19]: 0.77%; viability, T/C [20]: 0.76%; viability, T/C [21]: 0.7%; viability, T/C [22]: 1.78%; viability, T/C [23]: 1%; viability, T/C [24]: 1.89%; viability, T/C [25]: 2.34%; viability, T/C [26]: 2.46%; viability, T/C [27]: 1.31%; viability, T/C [28]: 2.13%; viability, T/C [29]: 1.56%; viability, T/C [30]: 3.41%; viability, T/C [31]: 1.54%; viability, T/C [32]: 2.06%; viability, T/C [33]: 2.24%; viability, T/C [34]: 1.65%; viability, T/C [35]: 2.6%; viability, T/C [36]: 1.89%

Q: What does the source list for `CCc1c2c(nc3ccc(O)cc13)-c1cc3c(c(=O)n1C2)COC(=O)[C@]3(O)CC` + CN1CCN(c2cc(C(=O)Nc3cc4cc(-c5cnn(C)c5)ccc4cn3)ccn2)CC1?
A: IC50 (second compound 0.0316 µM): < 0.00316 µM; IC50 (second compound 0.1 µM): < 0.00316 µM; IC50 (second compound 0.316 µM): < 0.00316 µM; IC50 (second compound 1 µM): < 0.00316 µM; IC50 (second compound 3.16 µM): < 0.00316 µM; IC50 (second compound 10 µM): < 0.00316 µM; viability, T/C (second compound 0.0316 µM, first compound 0.00316 µM): 38.6%; viability, T/C (second compound 0.0316 µM, first compound 0.01 µM): 20%; viability, T/C [1]: 11.3%; viability, T/C [2]: 7.09%; viability, T/C [3]: 8.74%; viability, T/C [4]: 11.7%; viability, T/C (second compound 0.1 µM, first compound 0.00316 µM): 33.3%; viability, T/C (second compound 0.1 µM, first compound 0.01 µM): 16.6%; viability, T/C [7]: 9.62%; viability, T/C [8]: 6.3%; viability, T/C [9]: 10.2%; viability, T/C [10]: 15.5%; viability, T/C (second compound 0.316 µM, first compound 0.00316 µM): 26.4%; viability, T/C (second compound 0.316 µM, first compound 0.01 µM): 12.7%; viability, T/C [13]: 8.57%; viability, T/C [14]: 8%; viability, T/C [15]: 11.9%; viability, T/C [16]: 13.1%; viability, T/C (second compound 1 µM, first compound 0.00316 µM): 2.16%; viability, T/C (second compound 1 µM, first compound 0.01 µM): 3.01%; viability, T/C [19]: 7.32%; viability, T/C [20]: 8.2%; viability, T/C [21]: 13.4%; viability, T/C [22]: 15.4%; viability, T/C (second compound 3.16 µM, first compound 0.00316 µM): 3.22%; viability, T/C (second compound 3.16 µM, first compound 0.01 µM): 5.26%; viability, T/C [25]: 11.6%; viability, T/C [26]: 11.3%; viability, T/C [27]: 14.1%; viability, T/C [28]: 13%; viability, T/C (second compound 10 µM, first compound 0.00316 µM): 2.58%; viability, T/C (second compound 10 µM, first compound 0.01 µM): 4.97%; viability, T/C [31]: 9.49%; viability, T/C [32]: 8.95%; viability, T/C [33]: 11.7%; viability, T/C [34]: 14%

Q: `COc1cccc2c1C(=O)c1c(O)c3c(c(O)c1C2=O)CC(O)(C(=O)CO)CC3OC1CC(N)C(O)C(C)O1` (stereo unspecified) + CN1CCN(c2cc(C(=O)Nc3cc4cc(-c5cnn(C)c5)ccc4cn3)ccn2)CC1 was tested. Which IC50 (second compound 0.0316 µM) did it give?
A: 0.34 µM

Q: What about the IC50 (second compound 0.1 µM) of the same molecule?
A: 0.215 µM

Q: What about the IC50 (second compound 0.316 µM) of the same molecule?
A: 0.0869 µM

Q: What about the IC50 (second compound 1 µM) of the same molecule?
A: < 0.0316 µM

Q: What about the IC50 (second compound 3.16 µM) of the same molecule?
A: < 0.0316 µM

Q: And the IC50 (second compound 10 µM)?
A: < 0.0316 µM

Q: And the viability, T/C [1]?
A: 97.5%

Q: What about the viability, T/C [2] of the same molecule?
A: 91.9%

Q: And the viability, T/C [3]?
A: 51.1%

Q: And the viability, T/C [4]?
A: 22.8%

Q: What about the viability, T/C [5] of the same molecule?
A: 6.06%

Q: What about the viability, T/C [6] of the same molecule?
A: 20.1%

Q: What about the viability, T/C [7] of the same molecule?
A: 95.9%

Q: What about the viability, T/C [8] of the same molecule?
A: 81.3%

Q: What about the viability, T/C [9] of the same molecule?
A: 34.5%

Q: What about the viability, T/C [10] of the same molecule?
A: 13.1%

Q: What about the viability, T/C [11] of the same molecule?
A: 5.58%

Q: What about the viability, T/C [12] of the same molecule?
A: 20.2%

Q: What about the viability, T/C [13] of the same molecule?
A: 69.8%

Q: And the viability, T/C [14]?
A: 47.2%

Q: And the viability, T/C [15]?
A: 12.7%

Q: What about the viability, T/C [16] of the same molecule?
A: 6.03%

Q: What about the viability, T/C [17] of the same molecule?
A: 8.55%

Q: What about the viability, T/C [18] of the same molecule?
A: 26.6%

Q: And the viability, T/C [19]?
A: 0.88%

Q: And the viability, T/C [20]?
A: 0.73%

Q: And the viability, T/C [21]?
A: 1.56%

Q: And the viability, T/C [22]?
A: 5.86%

Q: And the viability, T/C [23]?
A: 12.6%

Q: And the viability, T/C [24]?
A: 28.8%

Q: What about the viability, T/C [25] of the same molecule?
A: 1.17%

Q: What about the viability, T/C [26] of the same molecule?
A: 1.22%

Q: What about the viability, T/C [27] of the same molecule?
A: 2.37%

Q: And the viability, T/C [28]?
A: 6.61%

Q: And the viability, T/C [29]?
A: 14.8%

Q: And the viability, T/C [30]?
A: 30.9%

Q: And the viability, T/C [31]?
A: 1.73%

Q: What about the viability, T/C [32] of the same molecule?
A: 1.28%

Q: And the viability, T/C [33]?
A: 2.28%

Q: What about the viability, T/C [34] of the same molecule?
A: 8.69%

Q: And the viability, T/C [35]?
A: 14.6%

Q: And the viability, T/C [36]?
A: 27.2%

Reference: PubChem BioAssay AID2060617 (Molecular Pharmacology Branch, DTP, NCI, 2025)
